pIC50: −log10 of the molar value.
What was measured:
BTK = biological target: T1, BTK (Homo sapiens, UniProt Q06187); test: BTK kinase assay (HotSpot, 33P ATP); format: biochemical; settings: for BTK @ 0.01 μM (% Inh): 0.01 μM compound; for BTK @ 0.01 μM (% Inh) / BTK @ 0.1 μM (% Inh) / BTK @ 1 μM (% Inh): 10 μM ATP; for BTK @ 0.1 μM (% Inh): 0.1 μM compound; for BTK @ 1 μM (% Inh): 1 μM compound; for pIC50: 10 dose IC50, 10 μM ATP
T1 construct: purchased Reaction Biology Corporation
Protocol: (§1) Compounds of the invention were profiled in a 10 dose IC50 panel against BTK and PI3Kδ, both provided by Reaction Biology Corporation.
BTK assay: In vitro profiling protein kinases was performed using the “HotSpot” assay platform. Briefly, specific kinase/substrate pairs along with required cofactors were prepared in reaction buffer. Compounds were prepared as 10 mM stock solutions in DMSO. Compounds were delivered into the reaction, followed 15-20 minutes later by addition of a mixture of ATP (Sigma, St. Louis Mo.) and ^33P ATP (Perkin Elmer, Waltham Mass.) to a final concentration of 10 μM. […] IC50 values and curve fits were obtained using Prism (GraphPad Software). Buffer Conditions: 20 mM Hepes (pH 7.5), 10 mM MgCl2, 1 mM EGTA, 0.02% Brij35, 0.02 mg/mL BSA, 0.1 mM Na3VO4, 2 mM DTT, 1% DMSO.

PI3Kδ = biological target: T2, PI3Kδ (Homo sapiens, UniProt O00329); test: PI3Kδ kinase assay (HTRF, PIP3 detection); format: biochemical; settings: for PI3Kδ @ 0.01 μM (% Inh): 0.01 μM compound; for PI3Kδ @ 0.01 μM (% Inh) / PI3Kδ @ 0.1 μM (% Inh) / PI3Kδ @ 1 μM (% Inh): 10 μM ATP; for PI3Kδ @ 0.1 μM (% Inh): 0.1 μM compound; for PI3Kδ @ 1 μM (% Inh): 1 μM compound; for pIC50: 10 dose IC50, 10 μM ATP
T2 construct: purchased Reaction Biology Corporation
T2 sequence (O00329 whole entry): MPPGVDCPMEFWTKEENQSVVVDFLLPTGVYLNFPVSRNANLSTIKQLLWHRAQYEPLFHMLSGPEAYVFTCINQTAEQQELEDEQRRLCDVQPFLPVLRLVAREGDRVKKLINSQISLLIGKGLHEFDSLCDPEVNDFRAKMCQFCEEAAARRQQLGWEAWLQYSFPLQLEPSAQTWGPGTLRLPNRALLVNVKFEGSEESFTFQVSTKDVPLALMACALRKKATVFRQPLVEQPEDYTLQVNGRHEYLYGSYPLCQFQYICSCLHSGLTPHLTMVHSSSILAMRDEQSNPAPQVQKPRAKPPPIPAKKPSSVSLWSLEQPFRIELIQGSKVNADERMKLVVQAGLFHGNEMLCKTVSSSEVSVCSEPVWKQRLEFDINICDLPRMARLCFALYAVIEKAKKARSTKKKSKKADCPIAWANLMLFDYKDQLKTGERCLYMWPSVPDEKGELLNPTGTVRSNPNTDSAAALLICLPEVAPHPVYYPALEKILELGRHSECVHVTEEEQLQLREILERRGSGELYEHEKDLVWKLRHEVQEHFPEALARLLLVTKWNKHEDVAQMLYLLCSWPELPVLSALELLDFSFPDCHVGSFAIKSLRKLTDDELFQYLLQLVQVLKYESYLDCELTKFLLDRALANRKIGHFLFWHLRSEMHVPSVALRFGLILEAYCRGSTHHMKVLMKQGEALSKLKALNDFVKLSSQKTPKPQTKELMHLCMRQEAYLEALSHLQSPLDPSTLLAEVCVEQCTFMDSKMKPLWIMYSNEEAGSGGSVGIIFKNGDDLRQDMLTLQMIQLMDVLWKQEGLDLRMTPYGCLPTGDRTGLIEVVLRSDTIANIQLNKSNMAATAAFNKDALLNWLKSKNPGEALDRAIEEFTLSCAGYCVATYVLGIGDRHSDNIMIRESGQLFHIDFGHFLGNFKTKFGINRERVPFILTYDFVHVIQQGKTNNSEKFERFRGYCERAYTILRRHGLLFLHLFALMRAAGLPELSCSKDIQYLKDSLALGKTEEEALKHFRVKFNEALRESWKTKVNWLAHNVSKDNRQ
T2 sequence (P27986 whole entry partner): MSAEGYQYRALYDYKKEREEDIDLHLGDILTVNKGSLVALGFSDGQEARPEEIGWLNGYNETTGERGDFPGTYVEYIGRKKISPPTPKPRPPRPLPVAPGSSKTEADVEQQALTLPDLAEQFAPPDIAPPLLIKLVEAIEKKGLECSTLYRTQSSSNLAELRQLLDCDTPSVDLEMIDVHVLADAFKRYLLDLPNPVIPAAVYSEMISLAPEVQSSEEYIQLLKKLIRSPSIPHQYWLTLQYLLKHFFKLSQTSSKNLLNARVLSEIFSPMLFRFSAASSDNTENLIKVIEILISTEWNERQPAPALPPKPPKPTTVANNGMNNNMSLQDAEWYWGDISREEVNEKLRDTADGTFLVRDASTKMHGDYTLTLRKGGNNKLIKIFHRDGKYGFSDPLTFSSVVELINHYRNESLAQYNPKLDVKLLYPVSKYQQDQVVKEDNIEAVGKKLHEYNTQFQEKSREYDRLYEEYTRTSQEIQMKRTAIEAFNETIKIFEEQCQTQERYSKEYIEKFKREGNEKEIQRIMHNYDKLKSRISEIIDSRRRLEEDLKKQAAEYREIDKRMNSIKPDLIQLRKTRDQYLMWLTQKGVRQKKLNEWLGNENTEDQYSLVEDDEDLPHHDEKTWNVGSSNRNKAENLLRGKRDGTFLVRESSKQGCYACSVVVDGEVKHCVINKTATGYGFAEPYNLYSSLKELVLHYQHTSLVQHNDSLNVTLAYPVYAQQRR
Text: as §1
PI3Kδ assay: The PIP3 product is detected by displacement of biotin-PIP3 from an energy transfer complex consisting of Europium labeled anti-GST monoclonal antibody, a GST-tagged pleckstrin homology (PH) domain, biotinylated PIP3 and Streptavidin-Allophycocyanin (APC). […] The PIP3 product formed by PI 3-Kinase(h) activity displaces biotin-PIP3 from the complex resulting in a loss of energy transfer and thus a decrease in signal. This is a 3-step reaction: First, the kinase reaction with PIP2 substrate is carried out in the presence of ATP (10 μM), and the reaction is quenched with stop Solution, and then finally detect by adding Detection Mixture followed by incubation (10 min). Reaction procedure: 1) Prepare substrate in freshly prepared Reaction Buffer. 2) Deliver kinase into the substrate solution and gently mix. 3) Deliver compounds in 100% DMSO (1 μM) into the kinase reaction mixture by Acoustic technology (Echo550; nanoliter range), incubate for 10 min at RT. 4) Deliver ATP into the reaction mixture to initiate the reaction. 5) Incubate for 30 min at 30° C. 6) Quench the reaction with Stop Solution. 7) Add Detection Mixture, and incubate for overnight. […] The emission ratio is converted into μM PIP3 production based on PIP3 standard curves. The nonlinear regression to obtain the standard curve and IC50 values are performed using Graphpad Prism software. Assay Buffer: HEPES 50 mM (pH7.0), NaN3 0.02%, BSA 0.01%, Orthovanadate 0.1 mM, 1% DMSO. Detection buffer: HEPES 10 mM (pH7.0), BSA 0.02%, KF 0.16 M, EDTA 4 mM. Substrate: 10 μM PIP2 substrate (PI(4,5)P2).

T1 sequence (Q06187 whole entry): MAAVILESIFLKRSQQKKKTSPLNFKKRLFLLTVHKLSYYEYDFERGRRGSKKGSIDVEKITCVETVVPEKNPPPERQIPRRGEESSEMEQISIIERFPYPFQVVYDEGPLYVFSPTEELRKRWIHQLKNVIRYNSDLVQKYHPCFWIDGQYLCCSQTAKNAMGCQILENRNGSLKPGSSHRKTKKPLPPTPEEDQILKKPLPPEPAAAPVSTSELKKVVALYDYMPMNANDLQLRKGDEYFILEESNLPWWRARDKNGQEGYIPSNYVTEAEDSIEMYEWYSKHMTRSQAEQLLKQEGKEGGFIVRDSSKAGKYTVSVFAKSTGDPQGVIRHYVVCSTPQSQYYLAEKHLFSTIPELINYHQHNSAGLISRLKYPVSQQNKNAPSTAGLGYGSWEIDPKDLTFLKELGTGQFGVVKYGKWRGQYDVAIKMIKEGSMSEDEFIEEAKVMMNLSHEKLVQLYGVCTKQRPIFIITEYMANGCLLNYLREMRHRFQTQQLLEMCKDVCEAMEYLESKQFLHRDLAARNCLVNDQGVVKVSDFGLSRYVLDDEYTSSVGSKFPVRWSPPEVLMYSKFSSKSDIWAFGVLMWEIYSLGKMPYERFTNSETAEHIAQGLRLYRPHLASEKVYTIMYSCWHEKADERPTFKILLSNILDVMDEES

SMILES | BTK @ 0.01 μM (% Inh) (BTK) | BTK @ 0.1 μM (% Inh) (BTK) | PI3Kδ @ 0.01 μM (% Inh) (PI3Kδ) | PI3Kδ @ 0.1 μM (% Inh) (PI3Kδ) | BTK @ 1 μM (% Inh) (BTK) | PI3Kδ @ 1 μM (% Inh) (PI3Kδ) | pIC50 (BTK) | pIC50 (PI3Kδ)
Nc1nccn2c(C3Cc4ccccc4C3)nc(-c3cc(O)c(F)c(F)c3)c12 [compound 140, 5-[8-amino-3-(2,3-dihydro-1H-inden-2-yl)imidazo[1,5-a]pyrazin-1-yl]-2,3-difluorophenol] | 83.98 | 96.04 | 31.54 | 79.18 |  |  |  | 
Cn1ncc2c(-c3nn(C4Cc5ccccc5C4)c4ncnc(N)c34)cccc21 [Compound No. 98, 1-(2,3-dihydro-1H-inden-2-yl)-3-(1-methyl-1H-indazol-4-yl)-1H-pyrazolo[3,4-d]pyrimidin-4-amine] | 8.24 | 12.62 | 14.09 | 19.14 |  |  |  | 
N#Cc1c(-c2cc(O)c(F)c(F)c2)c2c(N)ncnc2n1C1Cc2ccccc2C1 [compound 135, 4-amino-5-(3,4-difluoro-5-hydroxyphenyl)-7-(2,3-dihydro-1H-inden-2-yl)-7H-pyrrolo[2,3-d]pyrimidine-6-carbonitrile] | 51.3 | 88.59 | 51.74 | 84.33 |  |  |  | 
Nc1ncnc2c1c(-c1ccnc3[nH]ccc13)nn2C1Cc2ccccc2C1 [Compound No. 70, 1-(2,3-dihydro-1H-inden-2-yl)-3-{1H-pyrrolo[2,3-b]pyridin-4-yl}-1H-pyrazolo[3,4-d]pyrimidin-4-amine] |  | 12.11 |  | 9.29 | 36.56 | 56.41 |  | 
Nc1ncnc2c1c(-c1cc(O)cc(F)c1)nn2C1CCc2ccccc21 (stereo not shown) [compound 30, 3-(4-amino-1-indan-1-yl-pyrazolo[3,4-d]pyrimidin-3-yl)-5-fluoro-phenol] |  | 35.16 |  | 64.19 |  |  | 6.66 | 7.89
COc1ncc(-c2nn(C3CCc4ccccc4C3)c3ncnc(N)c23)cc1F (stereo not shown) [compound 23, 3-(5-fluoro-6-methoxypyridin-3-yl)-1-(1,2,3,4-tetrahydronaphthalen-2-yl)-1H-pyrazolo[3,4-d]pyrimidin-4-amine] |  | 15.45 |  | 23.11 |  |  |  | 
Nc1ncnc2c1c(-c1cc(F)c(F)c(F)c1)nn2C1Cc2ccccc2C1 [Compound No. 86, 1-(2,3-dihydro-1H-inden-2-yl)-3-(3,4,5-trifluorophenyl)-1H-pyrazolo[3,4-d]pyrimidin-4-amine] | 8.08 | 21.34 | 17.21 | 20.84 |  |  |  | 
Nc1ncnc2c1c(-c1cccc3[nH]ccc13)nn2C1Cc2ccccc2C1 [Compound No. 78, 1-(2,3-dihydro-1H-inden-2-yl)-3-(1H-indol-4-yl)-1H-pyrazolo[3,4-d]pyrimidin-4-amine] |  | 18.18 |  | 4.96 | 54.62 | 43.86 |  | 
COc1cc(-c2nn(C3Cc4ccccc4C3)c3ncnc(N)c23)ccn1 [Compound No. 50, 1-(2,3-dihydro-1H-inden-2-yl)-3-(2-methoxypyridin-4-yl)-1H-pyrazolo[3,4-d]pyrimidin-4-amine] |  | 21.32 |  | 39.05 | 66.77 | 79.98 | 5.90 | 6.44
COc1cc(-c2nn(C3Cc4ccccc4C3)c3ncnc(N)c23)ccc1N [Compound No. 66, 3-(4-amino-3-methoxyphenyl)-1-(2,3-dihydro-1H-inden-2-yl)-1H-pyrazolo[3,4-d]pyrimidin-4-amine] |  | 69.93 |  | 17.08 | 95.07 | 53.69 | 7.60 | 6.34

Further lines, results first:

BTK @ 0.01 μM (% Inh) (BTK) | BTK @ 0.1 μM (% Inh) (BTK) | PI3Kδ @ 0.01 μM (% Inh) (PI3Kδ) | PI3Kδ @ 0.1 μM (% Inh) (PI3Kδ) | BTK @ 1 μM (% Inh) (BTK) | PI3Kδ @ 1 μM (% Inh) (PI3Kδ) | pIC50 (BTK) | pIC50 (PI3Kδ) | SMILES
 | 9.25 |  | 6.493 | 24.21 | 37.25 |  |  | Nc1ncnc2c1c(-c1ccnc(O)c1)nn2C1Cc2ccccc2C1 [Compound No. 52, 4-[4-amino-1-(2,3-dihydro-1H-inden-2-yl)-1H-pyrazolo[3,4-d]pyrimidin-3-yl]pyridin-2-ol]
 | 15.94 |  | 7.33 |  |  |  |  | Nc1ncnc2c1c(-c1ccc3cc[nH]c3c1)nn2C1CCCc2ccccc21 (stereo not shown) [compound 38, 3-(1H-indol-6-yl)-1-(1,2,3,4-tetrahydronaphthalen-1-yl)-1H-pyrazolo[3,4-d]pyrimidin-4-amine]
 | 45.74 |  | 5.1 | 68.21 | 29.99 |  |  | COc1cc(-c2nn(C3Cc4ccccc4C3)c3ncnc(N)c23)cc(Cl)c1OC [Compound No. 80, 3-(3-chloro-4,5-dimethoxyphenyl)-1-(2,3-dihydro-1H-inden-2-yl)-1H-pyrazolo[3,4-d]pyrimidin-4-amine]
 | 31.62 |  | 6.22 |  |  |  |  | Nc1ncnc2c1c(-c1ccc(F)c(O)c1)nn2C1CCCc2ccccc21 (stereo not shown) [compound 12, 5-(4-amino-1-tetralin-1-yl-pyrazolo[3,4-d]pyrimidin-3-yl)-2-fluoro-phenol]
 | 72.03 |  | 14.37 | 95.31 | 52.39 | 7.52 | 6.49 | COc1ccc(-c2nn(C3Cc4ccccc4C3)c3ncnc(N)c23)cc1N [Compound No. 73, 3-(3-amino-4-methoxyphenyl)-1-(2,3-dihydro-1H-inden-2-yl)-1H-pyrazolo[3,4-d]pyrimidin-4-amine]
72.51 | 93.64 | 38.49 | 80.15 |  |  |  |  | Nc1ncnc2c1c(-c1cc(O)c(F)c(F)c1)c(F)n2C1Cc2ccccc2C1 [compound 136, 5-[4-amino-7-(2,3-dihydro-1H-inden-2-yl)-6-fluoro-7H-pyrrolo[2,3-d]pyrimidin-5-yl]-2,3-difluorophenol]
 |  |  |  |  |  | 6.23 | 5.74 | COc1cc(F)cc(-c2nn(C3CCc4ccccc43)c3ncnc(N)c23)c1 (stereo not shown) [compound 4, 1-(2,3-dihydro-1H-inden-1-yl)-3-(3-fluoro-5-methoxyphenyl)-1H-pyrazolo[3,4-d]pyrimidin-4-amine]
 | 12.61 |  | 48.6 |  |  |  |  | Nc1ncnc2c1c(-c1ccc(O)c(O)c1)nn2C1CCc2ccccc2C1 (stereo not shown) [compound 1, 4-(4-amino-1-tetralin-2-yl-pyrazolo[3,4-d]pyrimidin-3-yl)benzene-1,2-diol]
 | 7.04 |  | 27.41 |  |  |  |  | COc1ccc(-c2nn(C3CCCc4ccccc43)c3ncnc(N)c23)cc1OC (stereo not shown) [compound 33, 3-(3,4-dimethoxyphenyl)-1-(1,2,3,4-tetrahydronaphthalen-1-yl)-1H-pyrazolo[3,4-d]pyrimidin-4-amine]
−7.89 | −6.05 | −2.71 | 5.54 |  |  |  |  | NCc1ccc(-c2nn(C3Cc4ccccc4C3)c3ncnc(N)c23)cc1 [compound 138, 3-[4-(aminomethyl)phenyl]-1-(2,3-dihydro-1H-inden-2-yl)-1H-pyrazolo[3,4-d]pyrimidin-4-amine]
 | 10.82 |  | 10.99 | 33.05 | 65.15 |  |  | Nc1ncnc2c1c(-c1ccc3c(c1)OCCCO3)nn2C1Cc2ccccc2C1 [Compound No. 74, 1-(2,3-dihydro-1H-inden-2-yl)-3-(3,4-dihydro-2H-1,5-benzodioxepin-7-yl)-1H-pyrazolo[3,4-d]pyrimidin-4-amine]
8.84 | 30.58 | 0.76 | 17.95 |  |  |  |  | Nc1ncnc2c1c(-c1ccc(F)c(F)c1)nn2C1Cc2ccccc2C1 [Compound No. 89, 3-(3,4-difluorophenyl)-1-(2,3-dihydro-1H-inden-2-yl)-1H-pyrazolo[3,4-d]pyrimidin-4-amine]

From patent publication US20210317140A1, “Heterocyclic Compounds and Methods of Use” (MEDIVATION TECHNOLOGIES, INC, priority 2013, published 2021)
